Measured values published in patent US6284746A (Chinoin, Ltd., priority 1993, dated 2001).
≈ marks a conversion by molar mass, not a printed value.

Key:
physchem [1] = conditions: water
[2] = background statement; cited from earlier work
[3] = Solubilizing of taxol with HPBCD (Example 5); assay type: physicochemical
Text: Taxol was solubilized and formulated with 2-hydroxypropylated β-cyclodextrin. (HPBCD).

[4] = Solubility of taxol with soluble anionic-β-cyclodextrin polymer CDPSI (Example 4); assay type: physicochemical
physchem [5] = assay: physchem
Text: The suspension was filtered and the dissolved taxol determined by HPLC.

physchem [6] = conditions: pH 7.6
Experimental: Randomly methylated β-cyclodextrin (average degree of substitution=1.8) was dissolved in physiological buffered saline (pH 7.6) at different concentrations and these solutions were incubated with the taxol substrate for 12 hours at room temperature. Each sample contained taxol in 5 mg/ml initial concentration. The suspensions after equilibration were membrane filtered and assayed for dissolved taxol by HPLC.

[7] = cited from earlier work
physchem [8] = conditions: 40% aqueous dimethyl-beta-cyclodextrin
Experimental: 11.6 mg of Taxol (Sigma Chemicals Co. USA) is treated in 10 ml of 40% aqueous heptakis-2,6-di-O-methylated β-cyclodextrin at room temperature for 30 minutes, until a solution of slight haze is obtained.

[9] = 25° C., 12 hours

CC(=O)O[C@H]1C(=O)[C@@]2(C)[C@H]([C@H](OC(=O)c3ccccc3)[C@]3(O)C[C@H](OC(=O)[C@H](O)[C@@H](NC(=O)c4ccccc4)c4ccccc4)C(C)=C1C3(C)C)[C@]1(OC(C)=O)CO[C@@H]1C[C@@H]2O (relative stereo) [taxol, [2aR-[2aα, 4β; 4αβ,6β,9α(αR*,βS*),11α-12α,12aα, 12bα]]-β-(Benzoylamino)-α-hydroxybenzene-propanoic acid 6,12-b-bis (acetyloxy)-12-(benzoyloxy)-2a,3,4,4a, 5,6,9,10,11,12,12a,12b-dodecahydro-4,11-dihyroxy-4a,8,13,13-tetramethyl-5-oxo-7,11-methano-1H-cyclodeca[3,4]-benz-[1,2-b]oxet-9-yl ester]
solubility (physchem [1]): 0.55 to 0.59 µg/mL (≈ 0.644 to 0.691 µM)
antitumor activity [2]: significant antitumor activity
products of decomposition, biological activity [2]: biologically inactive products are forming
solubility ([3]; 0.5% hpbcd solution, HPBCD 0.5%): 1 µg/mL (≈ 1.17 µM)
solubility ([3]; 1% hpbcd solution, HPBCD 1%): 1.7 µg/mL (≈ 1.99 µM)
solubility ([3]; 5% hpbcd solution, HPBCD 5%): 6.8 µg/mL (≈ 7.96 µM)
solubility ([3]; 10% hpbcd solution, HPBCD 10%): 34.9 µg/mL (≈ 40.9 µM)
solubility ([3]; 40% hpbcd solution, HPBCD 40%): 100 µg/mL (≈ 118 µM)
solubility ([3]; HPBCD none): 0.6 µg/mL (≈ 0.703 µM)
solubility ([4]; 0% cdpsi, CDPSI 0%): 0.6 µg/mL (≈ 0.703 µM)
solubility ([4]; 1% cdpsi solution, CDPSI 1%): 1.8 µg/mL (≈ 2.11 µM)
solubility ([4]; 5% cdpsi solution, CDPSI 5%): 3.5 µg/mL (≈ 4.1 µM)
solubility ([4]; 10% cdpsi solution, CDPSI 10%): 10.6 µg/mL (≈ 12.4 µM)
solubility ([4]; 40% cdpsi solution, CDPSI 40%): 56.8 µg/mL (≈ 66.5 µM)
solubility thermodynamic at 12 h (physchem [5]; 10% aqueous succinyl-methyl-β-cyclodextrin): 244 µg/mL (≈ 286 µM)
solubility thermodynamic at 12 h (physchem [5]; 40% succinyl-methyl-β-cyclodextrin solution): 993 µg/mL (≈ 1160 µM)
solubility thermodynamic at 12 h (physchem [6]; 1% rameb in buffered saline): 4.4 µg/mL (≈ 5.15 µM)
solubility thermodynamic at 12 h (physchem [6]; 5% rameb in buffered saline): 42.5 µg/mL (≈ 49.8 µM)
solubility thermodynamic at 12 h (physchem [6]; 10% rameb in buffered saline): 232 µg/mL (≈ 271 µM)
solubility thermodynamic at 12 h (physchem [6]; 40% rameb in buffered saline): 860 µg/mL (≈ 1010 µM)
solubility thermodynamic at 12 h (physchem [6]; buffered saline): 0.6 µg/mL (≈ 0.703 µM)
stability of taxol ([7]; Bartoli et al., background): generally poor stability
sensitivity to light and pH ([7]; background statement): very sensitive to light and the pH
solubility of taxol ([7]; glycosyl- and maltosyl-β-cyclodextrins with ethanol and ethylacetate (Mikuni 1993)): 20 to 110 µg/mL
solubility at 0.5 h (physchem [8]): 992 to 1000 µg/mL (≈ 1160 to 1170 µM)

CC(=O)O[C@@]12CO[C@@H]1C[C@H](O)[C@@]1(C)C(=O)[C@H](O)C3=C(C)[C@@H](OC(=O)[C@H](O)[C@@H](NC(=O)OC(C)(C)C)c4ccccc4)C[C@@](O)([C@@H](OC(=O)c4ccccc4)[C@H]21)C3(C)C [Taxotere, butoxycarbonyl-10-deacetyl-N-debenzoyl taxol]
solubility enhancement relative to free taxol derivative in water [9]: 850 times
